In patent EP4678638A1, “NEW E3 UBIQUITIN LIGASE LIGAND, PROTEIN DEGRADATION AGENT AND USE THEREOF” (priority 2023, dated 2024):

Biological target: T1, human Cereblon WT GST-tagged protein (Homo sapiens, UniProt Q96SW2)
T1 construct: purchased CISBIO 64BDCRBNPEH
Assay: CRBN binding, HTRF (CEREBLON BINDING kit)
Details: HTRF; for inhibition at 0.5 µM / inhibition at 2 µM: Table II-2, CRBN binding screening; for inhibition at 0.5 µM: read-out: Inhibition rate (%) at 0.5µM; for inhibition at 2 µM: read-out: Inhibition rate (%) at 2 µM
Method: The CEREBLON BINDING kits (specification: 10,000 tests; product number: Catalog # 64BDCRBNPEH; CISBIO company) was used to determine the CRBN binding ability of the compounds to be tested through a HTRF method (homogeneous time-resolved fluorescence). The specific methods are as follows: • 1. […] Then, 2.5 µL of human Cereblon WT GST-tagged protein solution was added to each well. Finally, 5 µL of the thoroughly mixed Thalidomide-Re reagent and GST Eu antibody working solution were added to each of the aforementioned wells. […] The blank control wells were sequentially added with 2.5 µL of diluent #9 (1X) solution, 2.5 µL of binding buffer, and 5 µL of thoroughly mixed Thalidomide-Re reagent and GST Eu antibody working solution. • 4. After sealing and incubating the solutions in the aforementioned wells at room temperature for 3 hours, the […] at emission wavelengths of 620 nm and 665 nm were detected by the HTRF method using a Spark microplate reader (V3.1 SP1).

T1 sequence (Q96SW2 whole entry): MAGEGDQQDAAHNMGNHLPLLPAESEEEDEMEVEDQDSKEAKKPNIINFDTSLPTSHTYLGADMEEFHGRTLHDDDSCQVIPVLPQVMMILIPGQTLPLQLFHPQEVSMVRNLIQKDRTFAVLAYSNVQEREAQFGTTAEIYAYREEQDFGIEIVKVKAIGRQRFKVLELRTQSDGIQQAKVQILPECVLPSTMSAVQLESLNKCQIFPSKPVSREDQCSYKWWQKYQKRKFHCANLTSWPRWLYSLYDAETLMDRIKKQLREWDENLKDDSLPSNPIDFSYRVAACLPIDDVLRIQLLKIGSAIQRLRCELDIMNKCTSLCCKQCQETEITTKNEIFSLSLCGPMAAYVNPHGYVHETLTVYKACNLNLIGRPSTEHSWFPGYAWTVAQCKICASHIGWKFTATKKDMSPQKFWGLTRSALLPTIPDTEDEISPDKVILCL

SMILES	IC50 (Table II-1, CRBN binding) [nM]	inhibition at 0.5 µM [%]	inhibition at 2 µM [%]
O=C1CCN(c2ccc(CN3CCN(C4CCN(c5ccc([C@@H]6c7ccc(O)cc7CC[C@@H]6c6ccccc6)cc5)CC4)CC3)cc2)C(=O)N1 [GT-04686, 1-(4-((4-(1-(4-((1R,2S)-6-hydroxy-2-phenyl-1,2,3,4-tetrahydronaphthalen-1-yl)phenyl)piperidin-4-yl)piperazin-1-yl)methyl)phenyl)dihydropyr imidine-2,4(1H,3H)-dione]	1000 to 1900		
CC(C)(O)c1cc2nn(C3CCN(Cc4ccc(C5CCC(=O)NC5=O)cn4)CC3)cc2cc1NC(=O)c1cccc(C(F)(F)F)n1 (stereo not shown) [GT-07541, N-(2-(1-((5-(2,6-dioxopiperidin-3-yl)pyridin-2-yl)methyl)piperidin-4-yl)-6-(2-hydroxypropan-2-yl)-2H-indazol-5-yl)-6-(trifluoromethyl)picolinamide]		40 to 53	60 to 80
COc1cc2nn(C3CCN(Cc4ccc(C5CCC(=O)NC5=O)cn4)CC3)cc2cc1NC(=O)c1cccc(C(F)(F)F)n1 (stereo not shown) [GT-07534, N-(2-(1-((5-(2,6-dioxopiperidin-3-yl)pyridin-2-yl)methyl)piperidin-4-yl)-6-methoxy-2H-indazol-5-yl)-6-(trifluoromethyl)picolinamide]		10 to 20	53 to 60
CN(c1nccnc1CNc1nc(Nc2ccc(N3CCN(Cc4cc(C5CCC(=O)NC5=O)cnc4F)CC3)cc2)ncc1C(F)(F)F)S(C)(=O)=O (stereo not shown) [GT-07397, N-(3-(((2-((4-(4-((5-(2,6-dioxopiperidin-3-yl)-2-fluoropyridin-3-yl)methyl)piperazin-1-yl)phenyl)amino)-5-(trifluoromethyl)pyrimidin-4-yl)amino)methyl)pyrazin-2-yl)-N-methylmethanesulfonamide]		30 to 40	60 to 80
CC(=O)c1c(C)c2cnc(Nc3ccc(N4CCN(Cc5cc(C6CCC(=O)NC6=O)cnc5F)CC4)cn3)nc2n(C2CCCC2)c1=O (stereo not shown) [GT-07591, 3-(5-((4-(6-((6-acetyl-8-cyclopentyl-5-methyl-7-oxo-7,8-dihydropyrido[2,3-d]pyrimidin-2-yl)amino)pyridin-3-yl)piperazin-1-yl)methyl)-6-fluoropyridin-3-yl)piperidine-2,6-dione]		20 to 30	80 to 100
COc1cc2nn(C3CCN(Cc4cc(C5CCC(=O)NC5=O)cnc4F)CC3)cc2cc1NC(=O)c1cccc(C(F)(F)F)c1 (stereo not shown) [GT-07547, N-(2-(1-((5-(2,6-dioxopiperidin-3-yl)-2-fluoropyridin-3-yl)methyl)piperidin-4-yl)-6-methoxy-2H-indazol-5-yl)-3-(trifluoromethyl)benzamide]		40 to 53	80 to 100
CC(=O)c1c(C)c2cnc(Nc3ccc(N4CCN(Cc5cncc(N6CCC(=O)NC6=O)c5)CC4)cn3)nc2n(C2CCCC2)c1=O [GT-07482, 1-(5-((4-(6-((6-acetyl-8-cyclopentyl-5-methyl-7-oxo-7,8-dihydropyrido[2,3-d]pyrimidin-2-yl)amino)pyridin-3-yl)piperazin-1-yl)methyl)pyridin-3-yl)dihydropyrimidine-2,4(1H,3H)-dione]		20 to 30	80 to 100
CN(c1nccnc1CNc1nc(Nc2ccc(N3CCN(Cc4ccc(N5CCC(=O)NC5=O)cn4)CC3)cc2)ncc1C(F)(F)F)S(C)(=O)=O [GT-07403, N-(3-(((2-((4-(4-((5-(2,4-dioxotetrahydropyrimidin-1(2H)-yl)pyridin-2-yl)methyl)piperazin-1-yl)phenyl)amino)-5-(trifluoromethyl)pyrimidin-4-yl)amino)methyl)pyrazin-2-yl)-N-methylmethanesulfonamide]		30 to 40	60 to 80

Next, values leading:

IC50 (Table II-1, CRBN binding) [nM]	inhibition at 0.5 µM [%]	inhibition at 2 µM [%]	SMILES
	20 to 30	60 to 80	CC(C)(O)c1cc2nc(C3CCN(Cc4cncc(C5CCC(=O)NC5=O)c4)CC3)oc2cc1NC(=O)c1cccc(C(F)(F)F)n1 (stereo not shown) [GT-07630, N-(2-(1-((5-(2,6-dioxopiperidin-3-yl)pyridin-3-yl)methyl)piperidin-4-yl)-5-(2-hydroxypropan-2-yl)benzo[d]oxazol-6-yl)-6-(trifluoromethyl)picolinamide]
	10 to 20	53 to 60	O=C1CCN(c2cnc(CN3C[C@H]4C[C@@H]3CN4c3ccc(-c4cc(F)c5c(c4)C(=O)N(C(C(=O)Nc4nccs4)c4ncn6c4CCC6)C5)cc3)cn2)C(=O)N1 (stereo partly drawn) [GT-07826, 2-(6,7-dihydro-5H-pyrrolo[1,2-c]imidazol-1-yl)-2-(6-(4-((1R,4R)-5-((5-(2,4-dioxotetrahydropyrimidin-1(2H)-yl)pyrazin-2-yl)methyl)-2,5-diazabicyclo[2.2.1]heptan-2-yl)phenyl)-4-fluoro-1-oxoisoindolin-2-yl)-N-(thiazol-2-yl)acetamide]
	53 to 60	80 to 100	O=C1CCC(c2ccc(CN3CCC(n4cc(NC(=O)c5cnn6ccc(N7C[C@H]8C[C@@H]7CO8)nc56)c(C(F)F)n4)CC3)nc2)C(=O)N1 (stereo partly drawn) [GT-07777, 5-((1R,4R)-2-oxa-5-azabicyclo[2.2.1]heptan-5-yl)-N-(3-(difluoromethyl)-1-(1-((5-(2,6-dioxopiperidin-3-yl)pyridin-2-yl)methyl)piperidin-4-yl)-1H-pyrazol-4-yl)pyrazolo[1,5-a]pyrimidine-3-carboxamide]
	40 to 53	80 to 100	O=C1CCC(c2cnc(F)c(CN3CCC(n4cc(NC(=O)c5cnn6ccc(N7CCOCC7)nc56)c(C(F)F)n4)CC3)c2)C(=O)N1 (stereo not shown) [GT-07767, N-(3-(difluoromethyl)-1-(1-((5-(2,6-dioxopiperidin-3-yl)-2-fluoropyridin-3-yl)methyl)piperidin-4-yl)-1H-pyrazol-4-yl)-5-morpholinopyrazolo[1,5-a]pyrimidine-3-carboxamide]
	30 to 40	60 to 80	CC(C)(O)c1cc2nn(C3CCN(Cc4cc(N5CCC(=O)NC5=O)cnc4F)CC3)cc2cc1NC(=O)c1cccc(C(F)(F)F)n1 [GT-07783, N-(2-(1-((5-(2,4-dioxotetrahydropyrimidin-1(2H)-yl)-2-fluoropyridin-3-yl)methyl)piperidin-4-yl)-6-(2-hydroxypropan-2-yl)-2H-indazol-5-yl)-6-(trifluoromethyl)picolinamide]
	30 to 40	53 to 60	COc1cc(N2CCC(N3CCN(Cc4cc(N5CCC(=O)NC5=O)cnc4F)CC3)CC2)ccc1Nc1ncc(Cl)c(Nc2ccccc2P(C)(C)=O)n1 [GT-07759, 1-(5-((4-(1-(4-((5-chloro-4-((2-(dimethylphosphoryl)phenyl)amino)pyrimidin-2-yl)amino)-3-methoxyphenyl)piperidin-4-yl)piperazin-1-yl)methyl)-6-fluoropyridin-3-yl)dihydropyrimidine-2,4(1H,3H)-dione]
	20 to 30	60 to 80	COc1cc2nn(C3CCN(Cc4cc(N5CCC(=O)NC5=O)cnc4F)CC3)cc2cc1NC(=O)c1cccc(C(F)(F)F)n1 [GT-07799, N-(2-(1-((5-(2,4-dioxotetrahydropyrimidin-1(2H)-yl)-2-fluoropyridin-3-yl)methyl)piperidin-4-yl)-6-methoxy-2H-indazol-5-yl)-6-(trifluoromethyl)picolinamide]
	20 to 30	60 to 80	CNC(=O)c1ccccc1Nc1cc(Nc2ccc(N3CCC(N(C)Cc4cc(C5CCC(=O)NC5=O)cnc4F)CC3)cc2OC)ncc1C(F)(F)F (stereo not shown) [GT-07656, 2-((2-((4-(4-(((5-(2,6-dioxopiperidin-3-yl)-2-fluoropyridin-3-yl)methyl)(methyl)amino)piperidin-1-yl)-2-methoxyphenyl)amino)-5-(trifluoromethyl)pyridin-4-yl)amino)-N-methylbenzamide]
	40 to 53	60 to 80	O=C1CCN(c2cnc(F)c(CN3CCN(c4ccc(-c5cc(F)c6c(c5)C(=O)N(C(CNc5nccs5)c5ncn7c5CCC7)C6)cc4)CC3)c2)C(=O)N1 (stereo not shown) [GT-07760, 1-(5-((4-(4-(2-(1-(6,7-dihydro-5H-pyrrolo[1,2-c]imidazol-1-yl)-2-(thiazol-2-ylamino)ethyl)-7-fluoro-3-oxoisoindolin-5-yl)phenyl)piperazin-1-yl)methyl)-6-fluoropyridin-3-yl)dihydropyrimidine-2,4(1H,3H)-dione]
	30 to 40	80 to 100	O=C1CCC(c2cncc(CN3CCC(n4cc(NC(=O)c5cnn6ccc(N7CCOCC7)nc56)c(C(F)F)n4)CC3)c2)C(=O)N1 (stereo not shown) [GT-07770, N-(3-(difluoromethyl)-1-(1-((5-(2,6-dioxopiperidin-3-yl)pyridin-3-yl)methyl)piperidin-4-yl)-1H-pyrazol-4-yl)-5-morpholinopyrazolo[1,5-a]pyrimidine-3-carboxamide]
	20 to 30	60 to 80	O=C1CCC(c2cc(CN3CCC(n4cc(NC(=O)c5cnn6ccc(N7C[C@H]8C[C@@H]7CO8)nc56)c(C(F)F)n4)CC3)ccn2)C(=O)N1 (stereo partly drawn) [GT-07776, 5-((1R,4R)-2-oxa-5-azabicyclo[2.2.1]heptan-5-yl)-N-(3-(difluoromethyl)-1-(1-((2-(2,6-dioxopiperidin-3-yl)pyridin-4-yl)methyl)piperidin-4-yl)-1H-pyrazol-4-yl)pyrazolo[1,5-a]pyrimidine-3-carboxamide]
